In PubChem BioAssay AID1963858 (Molecular Pharmacology Branch, DTP, NCI, 2024):

Tested on: HOP-62 multicell spheroids with HUVEC/MSC, viability
Experiment: Anticancer human tumor HOP-62 cell line growth inhibition [KRAS2];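 also: viability read after a week of compound exposure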;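 as to viability, T/C: 100% = DMSO vehicle-treated spheroids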
Conditions: for IC50: curve of first compound; for viability, T/C: stronger effect = lower value; active = viability on the fitted dose curve at most 10% of control; inactive = the rest
Method in brief: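 KRAS-mutant tumor cells were grown as spheroids with HUVEC endothelial cells and human MSCs as stroma. Targeted agents were tested alone and with KRAS pathway inhibitors. Doses started at or near clinical Cmax, or 10 microM, descending half-log.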

[1] = second compound 0.0316 µM, first compound 0.00316 µM
[2] = second compound 0.0316 µM, first compound 0.01 µM
[3] = second compound 0.0316 µM, first compound 0.0316 µM
[4] = second compound 0.0316 µM, first compound 0.1 µM
[5] = second compound 0.0316 µM, first compound 0.316 µM
[6] = second compound 0.0316 µM, first compound 1 µM
[7] = second compound 0.1 µM, first compound 0.00316 µM
[8] = second compound 0.1 µM, first compound 0.01 µM
[9] = second compound 0.1 µM, first compound 0.0316 µM
[10] = second compound 0.1 µM, first compound 0.1 µM
[11] = second compound 0.1 µM, first compound 0.316 µM
[12] = second compound 0.1 µM, first compound 1 µM
[13] = second compound 0.316 µM, first compound 0.00316 µM
[14] = second compound 0.316 µM, first compound 0.01 µM
[15] = second compound 0.316 µM, first compound 0.0316 µM
[16] = second compound 0.316 µM, first compound 0.1 µM
[17] = second compound 0.316 µM, first compound 0.316 µM
[18] = second compound 0.316 µM, first compound 1 µM
[19] = second compound 1 µM, first compound 0.00316 µM
[20] = second compound 1 µM, first compound 0.01 µM
[21] = second compound 1 µM, first compound 0.0316 µM
[22] = second compound 1 µM, first compound 0.1 µM
[23] = second compound 1 µM, first compound 0.316 µM
[24] = second compound 1 µM, first compound 1 µM
[25] = second compound 3.16 µM, first compound 0.00316 µM
[26] = second compound 3.16 µM, first compound 0.01 µM
[27] = second compound 3.16 µM, first compound 0.0316 µM
[28] = second compound 3.16 µM, first compound 0.1 µM
[29] = second compound 3.16 µM, first compound 0.316 µM
[30] = second compound 3.16 µM, first compound 1 µM

CCN1CCN(Cc2ccc(Nc3ncc(F)c(-c4cc(F)c5nc(C)n(C(C)C)c5c4)n3)nc2)CC1 + C=CC(=O)N1CCN(c2nc(OCC3CCCN3C)nc3c2CCN(c2cccc4cccc(C)c24)C3)CC1CC#N
17.2 nM: IC50 (second compound 0.316 µM)
inactive: viability, T/C [1] 91.3% | viability, T/C [2] 83.8% | viability, T/C [3] 64.1% | viability, T/C [4] 65% | viability, T/C [5] 52.4% | viability, T/C [6] 42.9% | viability, T/C [7] 65.6% | viability, T/C [8] 59.4% | viability, T/C [9] 54.7% | viability, T/C [10] 43.8% | viability, T/C [11] 42.9% | viability, T/C [12] 31.6% | viability, T/C [13] 57.3% | viability, T/C [14] 51.4% | viability, T/C [15] 51.3% | viability, T/C [16] 38.4% | viability, T/C [17] 34.1% | viability, T/C [18] 30.1% | viability, T/C [19] 39.4% | viability, T/C [20] 33.8% | viability, T/C [21] 37.3% | viability, T/C [22] 37.1% | viability, T/C [23] 37.8% | viability, T/C [24] 23.8%
active: viability, T/C [25] 0.71% | viability, T/C [26] 1.27% | viability, T/C [27] 1.14% | viability, T/C [28] 0.26% | viability, T/C [29] 0.17% | viability, T/C [30] 0.19%
< 3.16 nM: IC50 (second compound 1 µM) | IC50 (second compound 3.16 µM)
58.2 nM: IC50 (second compound 0.1 µM)
422 nM: IC50 (second compound 0.0316 µM)

CCNC(=O)CC1N=C(c2ccc(Cl)cc2)c2cc(OC)ccc2-n2c(C)nnc21 (stereo not given) + C=CC(=O)N1CCN(c2nc(OCC3CCCN3C)nc3c2CCN(c2cccc4cccc(C)c24)C3)CC1CC#N
168 nM: IC50 (second compound 0.0316 µM)
inactive: viability, T/C [3] 82.8% | viability, T/C [4] 62.3% | viability, T/C [5] 34.6% | viability, T/C [6] 33.2% | viability, T/C (second compound 0.0316 µM, first compound 3.16 µM) 27.2% | viability, T/C (second compound 0.0316 µM, first compound 10 µM) 29.3% | viability, T/C [9] 51% | viability, T/C [10] 43.6% | viability, T/C [11] 25.1% | viability, T/C [12] 22.7% | viability, T/C (second compound 0.1 µM, first compound 3.16 µM) 18.2% | viability, T/C (second compound 0.1 µM, first compound 10 µM) 20.6% | viability, T/C [15] 95% | viability, T/C [16] 95.4% | viability, T/C [17] 53.5% | viability, T/C [18] 45.1% | viability, T/C (second compound 0.316 µM, first compound 3.16 µM) 41.5% | viability, T/C (second compound 0.316 µM, first compound 10 µM) 36.8% | viability, T/C [21] 33.2% | viability, T/C [22] 24.5% | viability, T/C [23] 20.2% | viability, T/C [24] 19.2% | viability, T/C (second compound 1 µM, first compound 3.16 µM) 16.4% | viability, T/C (second compound 1 µM, first compound 10 µM) 16.1%
437 nM: IC50 (second compound 0.316 µM)
37.4 nM: IC50 (second compound 0.1 µM)
active: viability, T/C [27] 0.58% | viability, T/C [28] 0.37% | viability, T/C [29] 0.12% | viability, T/C [30] 0.12% | viability, T/C (second compound 3.16 µM, first compound 3.16 µM) 0.39% | viability, T/C (second compound 3.16 µM, first compound 10 µM) 0.19%
< 31.6 nM: IC50 (second compound 1 µM) | IC50 (second compound 3.16 µM)

Cn1ncnc1[C@H]1c2n[nH]c(=O)c3cc(F)cc(c23)N[C@@H]1c1ccc(F)cc1 + C=CC(=O)N1CCN(c2nc(OCC3CCCN3C)nc3c2CCN(c2cccc4cccc(C)c24)C3)CC1CC#N
< 0.316 nM: IC50 (second compound 0.316 µM) | IC50 (second compound 1 µM) | IC50 (second compound 3.16 µM)
active: viability, T/C (second compound 3.16 µM, first compound 0.000316 µM) 0.61% | viability, T/C (second compound 3.16 µM, first compound 0.001 µM) 0.57% | viability, T/C [25] 0.44% | viability, T/C [26] 0.5% | viability, T/C [27] 0.51% | viability, T/C [28] 0.71%
inactive: viability, T/C (second compound 0.0316 µM, first compound 0.000316 µM) 88.8% | viability, T/C (second compound 0.0316 µM, first compound 0.001 µM) 79.7% | viability, T/C [1] 82.3% | viability, T/C [2] 75.7% | viability, T/C [3] 74.3% | viability, T/C [4] 59.7% | viability, T/C (second compound 0.1 µM, first compound 0.000316 µM) 64.6% | viability, T/C (second compound 0.1 µM, first compound 0.001 µM) 58.3% | viability, T/C [7] 74% | viability, T/C [8] 49.8% | viability, T/C [9] 41.9% | viability, T/C [10] 44.7% | viability, T/C (second compound 0.316 µM, first compound 0.000316 µM) 48.7% | viability, T/C (second compound 0.316 µM, first compound 0.001 µM) 42% | viability, T/C [13] 40.6% | viability, T/C [14] 38.5% | viability, T/C [15] 30.6% | viability, T/C [16] 33% | viability, T/C (second compound 1 µM, first compound 0.000316 µM) 32.4% | viability, T/C (second compound 1 µM, first compound 0.001 µM) 30.2% | viability, T/C [19] 27.1% | viability, T/C [20] 25.7% | viability, T/C [21] 24.8% | viability, T/C [22] 22.1%
> 100 nM: IC50 (second compound 0.0316 µM)
9.86 nM: IC50 (second compound 0.1 µM)
